Experimental data from patent publication US20140206678A1, “INHIBITORS OF MTOR KINASE AS ANTI -VIRAL AGENT” (KADMON CORPORATION, LLC, priority 2011, published 2014).

How the values were obtained:
[1] = tested on: HCMV DNA; assay: HCMV viral DNA in infected fibroblasts by qPCR; assay type: cell-based, human cytomegalovirus
Procedure: FIG. 2. […] Serum-starved confluent fibroblasts were infected with HCMV at a multiplicity of 3 PFU/cell. […] Control cultures received the vehicle in which Torin1 was dissolved (NT). At 2 hpi cells were harvested, and cell-associated viral DNA was quantified by real-time PCR analysis. Error bars represent the standard errors of the means from two independent experiments performed in duplicate. […] The level of IE1 was determined at 6 hpi by a Western blot assay using an IE1-specific monoclonal antibody. The image is representative of two independent experiments. […] The expression of a GFP marker gene present in the viral genome was monitored at 24 h after infection in the presence or absence of drug.
FIG. 3. […] Cells were harvested at the indicated times, and the accumulation of the indicated proteins was analyzed by Western blotting. […] At the indicated times DNA was isolated, and viral DNA was quantified by qPCR. Equivalent amounts of DNA were analyzed for each sample, and the results are normalized to the level of actin DNA per sample. […] At the indicated times the amount of UL99 RNA was determined by qPCR, and the results are normalized to the amount of actin RNA in each sample. […]
Briefly, primary human fibroblasts were infected with BADinGFP at a multiplicity of 0.05 PFU/cell. […] For each sample, DNA was quantified by using a NanoDrop spectrophotometer (Thermo Scientific). […]

[2] = tested on: UL99 mRNA; assay: UL99 late transcript level by qPCR in HCMV-infected fibroblasts; assay type: cell-based, human cytomegalovirus; settings: rapamycin 20 nM, Torin1 250 nM; 3 PFU/cell
[3] = tested on: eIF4F complex and 4EBP1; assay: m7GTP-Sepharose cap-analog binding (eIF4F complex) in HCMV-infected fibroblasts; assay type: cell-based, human; settings: rapamycin 20 nM, Torin1 250 nM
Procedure: FIG. 4. Rapamycin-resistant mTOR activity is required for 4EBP1 phosphorylation and eIF4F complex integrity during HCMV infection. Serum-starved confluent human fibroblasts were infected with HCMV at a multiplicity of 3 PFU/cell. […] (A) At 48 hpi the phosphorylation status of mTORC1 targets was assessed by Western blot assay by using antibodies to phosphorylated targets (4EBP1-PT^37/46 and rpS6-PS^235/6) and total proteins. Tubulin was assayed as a loading control. (B) Same as above (A) except that cells were harvested at the indicated times. (C and D) After mock infection (M) or infection with HCMV (WT) at a multiplicity of 3 PFU/cell, cultures were harvested at the indicated times. Equivalent amounts of protein from each sample were incubated with m^7GTP-Sepharose, and the isolated protein complexes were analyzed by Western blotting using the indicated antibodies to the eIF4F complex and 4EBP1. In all cases the results are representative of at least two independent experiments. lys, lysate.
The phosphorylation status of 4EBP1 regulates cap-dependent protein translation. Hypophosphorylated 4EBP1 binds to eIF4E and inhibits the formation of the eIF4F complex, while the phosphorylation of 4EBP1 inhibits its interaction with eIF4E. […]

CCC(=O)N1CCN(c2ccc(-n3c(=O)ccc4cnc5ccc(-c6cnc7ccccc7c6)cc5c43)cc2C(F)(F)F)CC1 [Torin1]
level of cell-associated viral DNA ([1]; 2 hpi, 250 nM, pretreated 24 h or after adsorption, 3 PFU/cell): not influenced
reduction of viral DNA accumulation ([1]; 96 hpi, Torin1 250 nM, 0.05 PFU/cell): 150 fold
levels of UL99 mRNA [2]: decreased
association of 4EBP1 with m7GTP-Sepharose cap analog [3]: substantially increased association
association of eIF4G and eIF4A with the cap analog [3]: reduced association
